Reference: US12331054B2, “Perk inhibiting imidazolopyrazine compounds” (HiberCell, Inc., priority 2019, dated 2025)

Legend:
[1] = target: Recombinant human EIF2AK3 (PERK) catalytic domain (amino acids 536-1116) (Homo sapiens (Human), UniProt Q9NZJ5); assay: PERK In Vitro Activity Assay (isolated), TR-FRET kinase assay; details: isolated PERK enzyme, 1.5 μM ATP, read-out: Biochemical IC50
In short: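 Recombinant PERK catalytic domain was incubated with 100–200 nM GFP-eIF2a substrate in 50 mM HEPES pH 7.5, 10 mM MgCl2, 1.0 mM EGTA and 0.01% Brij-35 for 45 min at room temperature. After a 10 mM EDTA stop, 2 nM Tb-anti-phospho-eIF2a was added for 90 min, and IC50 was fitted from TR-FRET ratios by 4-parameter logistic regression.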

[2] = system: eIF2α in HEK293-EGFP-eIF2α cells; assay: PERK Cellular Assay (HEK293-EGFP-eIF2α cells, tunicamycin-induced ER stress, TR-FRET); assay type: cell-based; details: tunicamycin 2 hours
In short: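 Cells pre-incubated with inhibitor 30 min at 37 °C, then ER stress induced with […] tunicamycin for 2 h. TR-FRET read on lysates; ratio normalized to DMSO control as percent inhibition over a 10-point, 3-fold dilution series; IC50 from 4-parameter logistic fit.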

Sequence of Recombinant human EIF2AK3 (PERK) catalytic domain (amino acids 536-1116) (Q9NZJ5 536-1116): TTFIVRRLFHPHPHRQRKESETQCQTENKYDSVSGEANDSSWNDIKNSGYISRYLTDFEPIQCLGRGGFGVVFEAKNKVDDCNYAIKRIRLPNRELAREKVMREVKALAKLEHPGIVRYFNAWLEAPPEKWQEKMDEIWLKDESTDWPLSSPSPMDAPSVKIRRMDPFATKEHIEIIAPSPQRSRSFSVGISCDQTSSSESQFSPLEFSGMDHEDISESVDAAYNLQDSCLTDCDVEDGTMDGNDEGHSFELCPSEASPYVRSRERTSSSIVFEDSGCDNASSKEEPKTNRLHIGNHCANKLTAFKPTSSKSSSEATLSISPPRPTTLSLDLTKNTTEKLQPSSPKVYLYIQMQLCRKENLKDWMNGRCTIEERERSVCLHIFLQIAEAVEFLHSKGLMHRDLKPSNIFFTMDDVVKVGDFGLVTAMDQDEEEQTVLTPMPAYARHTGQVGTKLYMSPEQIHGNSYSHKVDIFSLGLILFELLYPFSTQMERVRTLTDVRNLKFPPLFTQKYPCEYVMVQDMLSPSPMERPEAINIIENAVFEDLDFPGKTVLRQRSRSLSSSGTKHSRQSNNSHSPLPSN

| Compound | IC50 [1] [nM] | IC50 [2] [nM] |
| --- | --- | --- |
| Cc1cc(NC(=O)C(O)c2cccc(F)c2)ccc1-c1nc(C)n2c(C(F)(F)F)cnc(N)c12 (centres unmarked) [Example 26, N-(4-(8-amino-3-methyl-5-(trifluoromethyl)imidazo[1,5-a]pyrazin-1-yl)-3-methylphenyl)-2-(3-fluorophenyl)-2-hydroxyacetamide] | 1 to 25 | 26 to 50 |
| [2H]C([2H])([2H])c1nc(-c2ccc(NC(=O)C(O)c3cc(F)cc(F)c3)c(F)c2F)c2c(N)ncc(C(F)(F)F)n12 (centres unmarked) [Example 158, N-[4-[8-amino-3-(trideuteriomethyl)-5-(trifluoromethyl)imidazo[1,5-a]pyrazin-1-yl]-2,3-difluoro-phenyl]-2-(3,5-difluorophenyl)-2-hydroxy-acetamide] | 1 to 25 | 1 to 25 |
| Cc1cc(NC(=O)C(O)c2cccc(F)c2)ccc1-c1nc(C)n2c(C)cnc(N)c12 (centres unmarked) [Example 9, N-(4-(8-amino-3,5-dimethylimidazo[1,5-a]pyrazin-1-yl)-3-methylphenyl)-2-(3-fluorophenyl)-2-hydroxyacetamide] | 51 to 100 | 251 to 500 |
| Cc1cnc(N)c2c(-c3ccc(NC(=O)C(O)c4cccc(F)c4)cc3F)nc(C)n12 (centres unmarked) [Example 70, N-(4-(8-amino-3,5-dimethylimidazo [1,5-a]pyrazin-1-yl)-3-fluorophenyl)-2-(3-fluorophenyl)-2-hydroxy-acetamide] | 1 to 25 | 1 to 25 |
| [2H]C([2H])([2H])c1nc(-c2ccc(NC(=O)C(O)c3cccc(F)c3)c(F)c2F)c2c(N)ncc(C(F)(F)F)n12 (centres unmarked) [Example 135, N-[4-[8-amino-3-(trideuteriomethyl)-5-(trifluoromethyl)imidazo[1,5-a]pyrazin-1-yl]-2,3-difluoro-phenyl]-2-(3-fluorophenyl)-2-hydroxy-acetamide] | 101 to 250 | 501 to 1000 |
| [2H]C([2H])([2H])c1nc(-c2ccc(NC(=O)C(O)c3cccc(C(F)(F)F)c3)c(F)c2F)c2c(N)ncc(C(F)(F)F)n12 (centres unmarked) [Example 148, N-[4-[8-amino-3-(trideuteriomethyl)-5-(trifluoromethyl)imidazo[1,5-a]pyrazin-1-yl]-2,3-difluoro-phenyl]-2-hydroxy-2-[3-(trifluoromethyl)phenyl]acetamide] | 1 to 25 | 1 to 25 |
| [2H]C([2H])([2H])c1nc(-c2ccc(NC(=O)C(O)c3cc(F)cc(C(F)(F)F)c3)cc2F)c2c(N)ncc(C)n12 (centres unmarked) [Example 110, N-[4-[8-amino-5-methyl-3-(trideuteriomethyl)imidazo[1,5-a]pyrazin-1-yl]-3-fluoro-phenyl]-2-[3-fluoro-5-(trifluoromethyl)phenyl]-2-hydroxy-acetamide] | 1 to 25 | 1 to 25 |
| [2H]C([2H])([2H])c1nc(-c2ccc(NC(=O)C(O)c3cccc(Cl)c3)c(F)c2F)c2c(N)ncc(C(F)(F)F)n12 (centres unmarked) [Example 143, N-[4-[8-amino-3-(trideuteriomethyl)-5-(trifluoromethyl)imidazo[1,5-a]pyrazin-1-yl]-2,3-difluoro-phenyl]-2-(3-chlorophenyl)-2-hydroxy-acetamide] | 251 to 500 | 251 to 500 |
| [2H]C([2H])([2H])c1nc(-c2ccc(NC(=O)C(O)c3cccc(C(F)(F)F)c3)c(F)c2F)c2c(N)ncc(C)n12 (centres unmarked) [Example 146, N-[4-[8-amino-5-methyl-3-(trideuteriomethyl)imidazo[1,5-a]pyrazin-1-yl]-2,3-difluoro-phenyl]-2-hydroxy-2-[3-(trifluoromethyl)phenyl]acetamide] | 1 to 25 | 1 to 25 |
| Cc1cnc(N)c2c(-c3ccc(NC(=O)C(O)c4cccc(F)c4)cc3OC(F)(F)F)nc(C)n12 (centres unmarked) [Example 126, N-(4-(8-amino-3,5-dimethyl-imidazo[1,5-a]pyrazin-1-yl)-3-(trifluoromethoxy)phenyl)-2-(3-fluorophenyl)-2-hydroxyacetamide] | 101 to 250 | 501 to 1000 |
| [2H]C([2H])([2H])c1nc(-c2ccc(NC(=O)C(O)c3cccc(C(F)(F)F)c3)cc2C)c2c(N)ncc(C(F)(F)F)n12 (centres unmarked) [Example 20, N-[4-[8-amino-3-(trideuteriomethyl)-5-(trifluoromethyl)imidazo[1,5-a]pyrazin-1-yl]-3-methyl-phenyl]-2-hydroxy-2-[3-(trifluoromethyl)phenyl]acetamide] | 1 to 25 | 26 to 50 |
| [2H]C([2H])([2H])c1nc(-c2ccc(NC(=O)C(O)c3cccc(Cl)c3)c(F)c2F)c2c(N)nc(C)cn12 (centres unmarked) [Example 141, N-[4-[8-amino-6-methyl-3-(trideuteriomethyl)imidazo[1,5-a]pyrazin-1-yl]-2,3-difluoro-phenyl]-2-(3-chlorophenyl)-2-hydroxy-acetamide] | 51 to 100 | 501 to 1000 |
| Cc1c(-c2nc(C)n3c(C)cnc(N)c23)ccc(NC(=O)C(O)c2cccc(F)c2)c1F (centres unmarked) [Example 168, N-(4-(8-amino-3,5-dimethyl-imidazo[1,5-a]pyrazin-1-yl)-2-fluoro-3-methyl-phenyl)-2-(3-fluorophenyl)-2-hydroxy-acetamide] | 1 to 25 | 251 to 500 |
| [2H]C([2H])([2H])c1nc(-c2ccc(NC(=O)C(O)c3cccc(C(F)(F)F)c3)c(F)c2F)c2c(N)ncc(Cl)n12 (centres unmarked) [Example 152, N-[4-[8-amino-5-chloro-3-(trideuteriomethyl)imidazo[1,5-a]pyrazin-1-yl]-2,3-difluoro-phenyl]-2-hydroxy-2-[3-(trifluoromethyl)phenyl]acetamide] | 1 to 25 | 1 to 25 |
| [2H]C([2H])([2H])c1nc(-c2ccc(NC(=O)C(O)c3cccc(C(F)(F)F)c3)c(F)c2F)c2c(N)ncc(C)n12 (centres unmarked) [Example 147, N-[4-[8-amino-5-methyl-3-(trideuteriomethyl)imidazo[1,5-a]pyrazin-1-yl]-2,3-difluoro-phenyl]-2-hydroxy-2-[3-(trifluoromethyl)phenyl]acetamide] | 26 to 50 | 101 to 250 |
| Cc1cc(NC(=O)C(O)c2cccc(F)c2)ccc1-c1nc(C)n2ccnc(N)c12 (centres unmarked) [Example 2, N-(4-(8-amino-3-methylimidazo[1,5-a]pyrazin-1-yl)-3-methylphenyl)-2-(3-fluorophenyl)-2-hydroxyacetamide] | 26 to 50 | 251 to 500 |
| [2H]C([2H])([2H])c1nc(-c2ccc(NC(=O)C(O)c3cccc(C(F)(F)F)c3)cc2F)c2c(N)nc(C)cn12 (centres unmarked) [Example 96, N-[4-[8-amino-6-methyl-3-(trideuteriomethyl)imidazo[1,5-a]pyrazin-1-yl]-3-fluoro-phenyl]-2-hydroxy-2-[3-(trifluoromethyl)phenyl]acetamide] | 1 to 25 | 1 to 25 |
| [2H]C([2H])([2H])c1nc(-c2ccc(NC(=O)C(O)c3cccc(F)c3)cc2F)c2c(N)ncc(C(F)(F)F)n12 (centres unmarked) [Example 76, N-[4-[8-amino-3-(trideuteriomethyl)-5-(trifluoromethyl)imidazo[1,5-a]pyrazin-1-yl]-3-fluoro-phenyl]-2-(3-fluorophenyl)-2-hydroxy-acetamide] | 1 to 25 | 1 to 25 |
| [2H]C([2H])([2H])c1nc(-c2ccc(NC(=O)C(O)c3cc(F)cc(F)c3)cc2C)c2c(N)nc(C)cn12 (centres unmarked) [Example 44, N-[4-[8-amino-6-methyl-3-(trideuteriomethyl)imidazo[1,5-a]pyrazin-1-yl]-3-methyl-phenyl]-2-(3,5-difluoro-phenyl)-2-hydroxy-acetamide] | 1 to 25 | 101 to 250 |
| [2H]C([2H])([2H])c1nc(-c2ccc(NC(=O)C(O)c3cc(F)cc(F)c3)cc2C)c2c(N)ncc(C(F)(F)F)n12 (centres unmarked) [Example 46, N-[4-[8-amino-3-(trideuteriomethyl)-5-(trifluoromethyl)imidazo[1,5-a]pyrazin-1-yl]-3-methyl-phenyl]-2-(3,5-difluoro-phenyl)-2-hydroxy-acetamide] | 1 to 25 | 26 to 50 |
| [2H]C([2H])([2H])c1nc(-c2ccc(NC(=O)C(O)c3cccc(C(F)(F)F)c3)c(F)c2F)c2c(N)ncc(C(F)(F)F)n12 (centres unmarked) [Example 149, N-[4-[8-amino-3-(trideuteriomethyl)-5-(trifluoromethyl)imidazo[1,5-a]pyrazin-1-yl]-2,3-difluoro-phenyl]-2-hydroxy-2-[3-(trifluoromethyl)phenyl]acetamide] | 501 to 1000 | 251 to 500 |
| [2H]C([2H])([2H])c1nc(-c2ccc(NC(=O)C(O)c3cccc(Cl)c3)cc2F)c2c(N)ncc(C)n12 (centres unmarked) [Example 85, N-[4-[8-amino-5-methyl-3-(trideuteriomethyl)imidazo[1,5-a]pyrazin-1-yl]-3-fluoro-phenyl]-2-(3-chlorophenyl)-2-hydroxy-acetamide] | 1 to 25 | 51 to 100 |
